Reference: patent US20240409572A1, “COMPOUND FOR TREATING NEURODEGENERATIVE DISEASES AND ITS ISOLATION METHOD THEREOF” (SARAWAK BIODIVERSITY COUNCIL, priority 2020, published 2024)

Biological target: T1, recombinant human POP (Homo sapiens, UniProt P48147)
T1 construct: purchased USBiological, MA
T1 sequence (P48147 1-710): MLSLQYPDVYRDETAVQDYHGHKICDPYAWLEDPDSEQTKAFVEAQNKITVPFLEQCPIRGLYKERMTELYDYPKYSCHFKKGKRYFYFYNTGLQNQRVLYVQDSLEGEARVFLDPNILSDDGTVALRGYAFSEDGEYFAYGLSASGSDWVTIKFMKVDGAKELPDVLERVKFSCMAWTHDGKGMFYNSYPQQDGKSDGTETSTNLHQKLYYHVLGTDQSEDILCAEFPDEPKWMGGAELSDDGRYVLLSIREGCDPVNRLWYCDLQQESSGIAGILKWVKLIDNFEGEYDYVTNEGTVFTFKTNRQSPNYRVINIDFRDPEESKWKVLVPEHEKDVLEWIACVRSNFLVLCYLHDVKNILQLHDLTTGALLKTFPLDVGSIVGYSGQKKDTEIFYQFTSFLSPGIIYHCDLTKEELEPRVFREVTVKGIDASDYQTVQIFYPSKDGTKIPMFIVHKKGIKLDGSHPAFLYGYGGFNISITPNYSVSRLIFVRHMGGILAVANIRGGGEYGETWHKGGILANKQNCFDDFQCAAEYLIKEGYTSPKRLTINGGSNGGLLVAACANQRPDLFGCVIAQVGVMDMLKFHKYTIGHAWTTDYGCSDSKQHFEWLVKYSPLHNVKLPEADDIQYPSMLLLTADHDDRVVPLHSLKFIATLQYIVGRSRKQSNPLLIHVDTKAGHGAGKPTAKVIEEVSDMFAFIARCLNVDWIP
Test: POP enzyme inhibition colorimetric assay (recombinant human POP)
Assay type: biochemical
Conditions: 0.04 mg/ml; read-out: inhibition against human POP
Description: FIG. 3 illustrates the inhibition activity of FGS03 against Flavobacterium and recombinant human POP. FGS03 is tested at final concentrations of 0.02 mg/ml and 0.04 mg/ml respectively. Positive control is PE Inhibitor II, Calbiochem, USA. Each sample is tested in triplicate. Data represented as mean value with standard deviation, n=3.
The POP inhibitory activity of compound was evaluated using an enzyme inhibition assay. A colorimetric assay was set up using Flavobacterium and recombinant human POP enzymes. The POP enzyme solutions obtained from Flavobacterium (0.5 U mL^−1 giving 0.0416 units per well) and human (USBiological, MA with working concentration 0.006 mg/ml) were added to the 96-well plates containing sample extracts and phosphate buffer (100 mM, pH 7.0). The reaction was initiated with the addition of enzyme substrate, Z-Gly-Pro-4-nitroanilide (2 mM in 40% dioxane) and incubated at 30° C. for 15 minutes. Stopper buffer (2 M acetate buffer, pH 4.0 with 10% Triton-X) was added to stop the enzyme reaction. The released p-nitroanilide was determined colorimetrically with a plate reader at 414 nm. The inhibition activity was calculated using the formula:
[formula] • where blank=control without the inhibitor • OD=change in optical density during the assay.

Compound: CCCCCCCCCCCc1cc(O)cc(O[C@H]2O[C@@H](C(=O)O)[C@@H](O)[C@H](O)[C@H]2O)c1C(=O)O [FGS03, (2R,3S,4S,5R,6R)-6-(2-carboxy-5-hydroxy-3-undecylphenoxy)-3,4,5-trihydroxytetrahydro-2H-pyran-2-carboxylic acid]
- inhibition at 40 µg/mL: 80%
